PubChem BioAssay (NCI)
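How tested: cells in 96-well plates exposed to compound for 48 hours at five concentrations. At the TGI there is no net growth.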

Assays:
Experiment in all cases: NCI tumour cell line growth inhibition, 48 h
EKVX NSCLC = tested on: EKVX NSCLC
KM12 colon = tested on: KM12 colon
MOLT-4 leukemia = tested on: MOLT-4 leukemia
SF-539 CNS = tested on: SF-539 CNS
K-562 leukemia = tested on: K-562 leukemia
SNB-19 CNS = tested on: SNB-19 CNS
NCI-H522 lung = tested on: NCI-H522 lung
OVCAR-3 ovarian = tested on: OVCAR-3 ovarian
SK-MEL-5 melanoma = tested on: SK-MEL-5 melanoma
M14 melanoma = tested on: M14 melanoma

Measured: TGI

O=C1C2C3C=C4c5ccccc5N(c5ccccc5)C4(C2C(=O)N1c1ccc([N+](=O)[O-])cc1)[C@H]1C(=O)N(c2ccc([N+](=O)[O-])cc2)C(=O)[C@@H]31 (stereo not given in full)
> 100 µM: all assays above
